{"source": "paper PMC11117333", "about": "“Design and synthesis of new dihydropyrimidine/sulphonamide hybrids as promising anti-inflammatory agents via dual mPGES-1/5-LOX inhibition” (Frontiers in Chemistry, 2024)", "key": {"[1]": {"test_system": "PGE2 production in A549 cells", "design": "method as in Kim et al., 2021", "conditions": "ref Kim et al., 2021; cited from earlier work"}, "mPGES-1 [2]": {"target": "T1, mPGES-1 (Homo sapiens, UniProt O14684)", "T1 construct": "microsomal fractions from IL-1β-stimulated A549 cells served as the enzyme source; endogenous in cells; host or cells: A549 cells (IL-1β-stimulated), microsomal fraction", "T1 sequence (O14684 1-152)": "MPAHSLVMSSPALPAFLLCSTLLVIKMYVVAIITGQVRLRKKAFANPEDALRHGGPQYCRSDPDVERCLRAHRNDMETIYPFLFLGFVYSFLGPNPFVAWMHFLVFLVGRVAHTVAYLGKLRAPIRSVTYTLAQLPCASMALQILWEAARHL", "conditions": "cited from earlier work; for IC50: ref Lauro et al., 2014"}, "5-LOX": {"test_system": "5-LOX", "conditions": "cited from earlier work"}, "rat intestinal mucosa": {"test_system": "rat intestinal mucosa", "assay": "Gastric ulcerogenic activity (macroscopic inspection)", "type": "in vivo", "design": "Score: Severity lesions: scale not given here", "conditions": "oral 10 mg/kg", "method": "The two most common side effects of long-term NSAID use are gastrointestinal erosion and ulcers ([Hendawy et al., 2021]). As a result, we were curious about the ulcerogenic potential of the most efficacious drugs, 3e and 3j, when given orally. The ulcerogenic effects of 3e and 3j were assessed by macroscopic inspection of rat intestinal mucosa after oral administration of 10 mg/kg of 3e, 3j, indomethacin, and celecoxib ([Manivannan and Chaturvedi, 2011]).\nThe ulcerogenic effects of compounds 3e and 3j were evaluated by macroscopic examination of rat intestinal mucosa after oral administration of 10 mg/kg of these compounds and indomethacin and celecoxib ([Manivannan and Chaturvedi, 2011]). See Appendix A for details."}, "mPGES-1 [3]": {"target": "T1, mPGES-1", "assay": "Cell-free mPGES-1 enzyme assay (microsomal fractions from IL-1β-stimulated A549 cells)", "type": "biochemical", "method": "A cell-free assay was conducted to evaluate the capacity of compounds […] to act as inhibitors of mPGES-1. In this assay, microsomal fractions from IL-1β-stimulated A549 cells served as the enzyme source ([Gürses et al., 2021]). During the initial screening phase, compounds 3a–j were examined for their effects on mPGES-1 at a concentration of 10 µM.\nMicrosomal measures of A549 cells expressing mPGES-1 were made in accordance with prior research findings ([Koeberle et al., 2008]). These cells were cultivated in Dulbecco’s Modified Eagle Medium and resuspended in a homogenization buffer. Subsequently, the microsomes were subjected to pre-incubation with either assessed compounds or a carrier solution containing 0.1 percent DMSO. The enzymatic process was halted by introducing FeCl3, citric acid, and 11-PGE2 as an internal standard. The quantities of Prostaglandin E2 (PGE2) were measured via RP-HPLC methodologies."}, "soya bean 5-LOX": {"target": "T2, soya bean 5-LOX (Glycine max, UniProt P08170)", "T2 construct": "purchased Cayman Chemical, Ann Arbor, Michigan, USA 760700", "T2 sequence (P08170 1-839)": "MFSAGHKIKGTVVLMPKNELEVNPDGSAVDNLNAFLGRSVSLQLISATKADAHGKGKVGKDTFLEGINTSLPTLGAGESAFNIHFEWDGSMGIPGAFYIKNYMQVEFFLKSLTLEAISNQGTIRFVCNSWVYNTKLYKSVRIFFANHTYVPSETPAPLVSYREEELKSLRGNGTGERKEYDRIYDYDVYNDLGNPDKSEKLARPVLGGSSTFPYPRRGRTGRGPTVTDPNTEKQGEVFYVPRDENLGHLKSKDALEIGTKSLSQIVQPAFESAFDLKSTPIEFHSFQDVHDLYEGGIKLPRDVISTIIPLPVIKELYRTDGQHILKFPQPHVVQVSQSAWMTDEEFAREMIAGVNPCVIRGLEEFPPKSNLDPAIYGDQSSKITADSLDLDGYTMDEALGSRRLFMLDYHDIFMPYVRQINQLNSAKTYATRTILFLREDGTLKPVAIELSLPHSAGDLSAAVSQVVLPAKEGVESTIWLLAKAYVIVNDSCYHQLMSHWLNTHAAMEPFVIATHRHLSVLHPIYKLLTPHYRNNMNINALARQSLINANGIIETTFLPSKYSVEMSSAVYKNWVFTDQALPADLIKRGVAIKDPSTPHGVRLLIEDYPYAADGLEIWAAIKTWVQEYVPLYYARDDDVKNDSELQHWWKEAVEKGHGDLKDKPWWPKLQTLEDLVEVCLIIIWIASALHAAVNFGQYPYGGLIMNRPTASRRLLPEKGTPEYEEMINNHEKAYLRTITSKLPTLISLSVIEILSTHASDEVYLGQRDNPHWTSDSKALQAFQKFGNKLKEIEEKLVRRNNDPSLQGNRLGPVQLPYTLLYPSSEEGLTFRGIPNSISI", "assay": "5-LOX enzyme assay (EIA kit, Cayman 760700)", "type": "biochemical", "from_the_text": "The capacity of compounds 3a–j to inhibit the enzyme 5-lipoxygenase (5-LOX) has been investigated ([Youssif et al., 2019]).\nThe study used an enzyme immune assay (EIA) kit (catalogue no. 760700, Cayman Chemical, Ann Arbor, Michigan, USA) to evaluate the inhibitory activity of target analogues against soya bean 5-LOX, ensuring compliance with manufacturer’s instructions and protocols, and calculating IC50 values ([Roschek et al., 2009])."}, "PGE2": {"test_system": "PGE2", "assay": "Rat serum PGE2 after carrageenan (ELISA)", "type": "in vivo", "conditions": "4 hours after subcutaneous carrageenan", "from_the_text": "Inhibiting PGE2 is a crucial strategy in anti-inflammatory therapy, playing a pivotal role in managing inflammation and its associated conditions.\n(§1) In this study, specializing ELISA kits were used to determine the concentration of inflammatory cytokines PGE2, IL-6, and TNF-α. The study’s findings were examined in accordance with the instructions provided by the manufacturer, and measurements were taken based on the optical density at 450 nm."}, "TNF-α": {"test_system": "TNF-α", "assay": "Rat serum TNF-α after carrageenan (ELISA)", "type": "in vivo", "from_the_text": "as §1"}, "[4]": {"test_system": "carrageen-induced paw edema", "assay": "Carrageenan-induced paw edema bioassay", "type": "in vivo, rat", "design": "concentration or dose not given beside the values", "method": "The compounds’ efficacy was measured as edema inhibition percentage (EI %) after 1, 3, and 5 h of carrageenan injection vs. the conventional medicine Celecoxib.\nCompounds 3c, 3e, 3h, and 3j were chosen for in vivo anti-inflammatory testing using the carrageen-induced paw edema bioassay method described by [Winter et al, (1962)]. The compounds’ efficacy was measured as edema inhibition percentage (EI%) after 1, 3, and 5 h of carrageenan injection vs. the conventional medicine Celecoxib."}, "IL-6": {"test_system": "IL-6", "assay": "Rat serum IL-6 after carrageenan (ELISA)", "type": "in vivo", "from_the_text": "as §1"}}, "note": "Values joined by “and” are separate entries in the source; they are usually repeats but may differ in a detail not shown here. Identical values can stand only once. Like-named read-outs stand apart in the source and are kept apart here. Marks after values point to notes of the source that are not given here."}
{"smiles": "O=C(Nc1ccc(OCCCCc2ccccc2)cc1)N(Cc1ccccc1)S(=O)(=O)c1ccc(Cl)cc1", "note": "[VI]", "values": [{"measurement": "IC50", "setting": "[1]", "value": 240, "unit": "nM"}, {"measurement": "fold more active than the standard inhibitor MK-886 (PGE2 production)", "setting": "[1]", "value": "about 9 fold"}]}
{"smiles": "CC1=C(C(=O)OCc2ccccc2)C(c2ccc(-c3cccc(C(F)(F)F)c3)o2)NC(=O)N1CCC(=O)O", "note": "(centres unmarked) [III]", "values": [{"measurement": "fold higher activity than compound I (mPGES-1)", "setting": "mPGES-1 [2]; ref Terracciano et al., 2015", "value": 10, "unit": "fold"}]}
{"smiles": "O=C(Cc1cn(-c2ccccc2)nc1-c1ccc(Cl)cc1)NS(=O)(=O)c1ccc(Cl)cc1", "note": "[VIII]", "values": [{"measurement": "IC50", "setting": "5-LOX; ref Elkady et al., 2012", "value": 2900, "unit": "nM"}, {"measurement": "folds more potent than lonazolac calcium against 5-LOX", "setting": "5-LOX; ref Elkady et al., 2012", "value": 20, "unit": "fold"}, {"measurement": "folds more potent than lonazolac calcium against mPGES-1", "setting": "mPGES-1 [2]; ref Elkady et al., 2012", "value": 19, "unit": "fold"}]}
{"smiles": "COC(=O)C1=C(C)NC(Nc2cc(O)cc(Cl)c2)=NC1c1ccc(Cl)cc1", "note": "(centres unmarked) [V]", "values": [{"measurement": "5-LOX % inhibition", "setting": "5-LOX; 2.46 µM concentration, ref Venugopala et al., 2015", "value": 81.19, "unit": "%"}]}
{"smiles": "CCOC(=O)C1=C(C(=O)c2ccc(OC)cc2)C(c2ccc(-c3cccc(C(F)(F)F)c3)o2)NC(=O)N1", "note": "(centres unmarked) [I]", "values": [{"measurement": "IC50", "setting": "mPGES-1 [2]", "value": "4160 ± 470", "unit": "nM"}]}
{"smiles": "CCOC(=O)CCSC1=NC(c2ccccc2)C=C(c2ccccc2)N1", "note": "(centres unmarked) [IV]", "values": [{"measurement": "5-LOX % inhibition at 100 μg/mL", "setting": "5-LOX; 100 μg/mL, ref Lokwani et al., 2015", "value": 51.84, "unit": "%"}, {"measurement": "IC50", "setting": "5-LOX; ref Lokwani et al., 2015", "value": 19100, "unit": "nM"}]}
{"smiles": "COc1ccc(C2NC(=O)NC(C)=C2C(=O)Nc2ccc(S(N)(=O)=O)cc2)cc1OC", "note": "(centres unmarked) [Compound 3j, 4-[3,4-dimethoxyphenyl]-6-methyl-2-oxo-N-[4-sulfamoylphenyl]-1,2,3,4-tetrahydropyrimidine-5-carboxamide]", "values": [{"measurement": "Score: No. of gastric ulcers", "setting": "rat intestinal mucosa", "value": 0}, {"measurement": "Score: Severity lesions", "setting": "rat intestinal mucosa", "value": 0}, {"measurement": "Ulceration in the isolated rat stomach (in words)", "setting": "rat intestinal mucosa", "value": "did not generate ulceration"}, {"measurement": "remaining activity at 10 µM", "setting": "mPGES-1 [3]; 10 µM compound, cell-free, A549 microsomes, read-out: mPGES-1 RA (%) 10 µM (residual activity percentage)", "value": 24.7, "unit": "%"}, {"measurement": "IC50", "setting": "mPGES-1 [3]; cell-free, A549 microsomes", "value": 920, "unit": "nM"}, {"measurement": "fold more potent than the reference MK886 (mPGES-1)", "setting": "mPGES-1 [3]; from IC50 values", "value": 2.4, "unit": "fold"}, {"measurement": "IC50", "setting": "soya bean 5-LOX", "value": "1980 nM and 1890 nM"}, {"measurement": "PGE2 %inhibition", "setting": "PGE2", "value": "79.20% and 79%"}, {"measurement": "PGE2 serum concentration", "setting": "PGE2; mean ± SE", "value": "62.60 ± 2.75 ^b pg/mL"}, {"measurement": "TNFα %inhibition", "setting": "TNF-α", "value": 71, "unit": "%"}, {"measurement": "TNFα serum concentration", "setting": "TNF-α; mean ± SE", "value": "68.50 ± 2.00^bc pg/mL"}, {"measurement": "melting point", "value": "266 to 267", "unit": "°C"}, {"measurement": "% Of edema inhibition 1 h", "setting": "[4]; 1 h after carrageenan injection", "value": 38, "unit": "%"}, {"measurement": "% Of edema inhibition 3 h", "setting": "[4]; 3 h after carrageenan injection", "value": 60, "unit": "%"}, {"measurement": "% Of edema inhibition 5 h", "setting": "[4]; 5 h after carrageenan injection", "value": 71, "unit": "%"}, {"measurement": "IL-6 %inhibition", "setting": "IL-6", "value": 77, "unit": "%"}, {"measurement": "IL-6 serum concentration", "setting": "IL-6; mean ± SE", "value": "85.50 ± 2.35^bc pg/mL"}]}
{"smiles": "CCOC(=O)C1=C(C(=O)c2ccc(OC)cc2)C(c2ccc(-c3cccc(C(F)(F)F)c3)o2)NC(=O)N1C", "note": "(centres unmarked) [II]", "values": [{"measurement": "IC50", "setting": "mPGES-1 [2]", "value": "7560 ± 940", "unit": "nM"}]}
{"smiles": "COc1ccc2c(c1)c(CC(=O)NS(=O)(=O)c1ccc(C)cc1)c(C)n2C(=O)c1ccc(Cl)cc1", "note": "[VII]", "values": [{"measurement": "IC50", "setting": "5-LOX; ref Elkady et al., 2012", "value": 2900, "unit": "nM"}]}
